18 molecules from BindingDB's records for doi:10.1021/cc9800374 (Smithkline Beecham Pharmaceuticals, 1999) can be followed below.

Some results are limits rather than exact numbers.

One test concerns the target T1, Cathepsin K (Homo sapiens, UniProt P43235).
T1 sequence (P43235 whole entry): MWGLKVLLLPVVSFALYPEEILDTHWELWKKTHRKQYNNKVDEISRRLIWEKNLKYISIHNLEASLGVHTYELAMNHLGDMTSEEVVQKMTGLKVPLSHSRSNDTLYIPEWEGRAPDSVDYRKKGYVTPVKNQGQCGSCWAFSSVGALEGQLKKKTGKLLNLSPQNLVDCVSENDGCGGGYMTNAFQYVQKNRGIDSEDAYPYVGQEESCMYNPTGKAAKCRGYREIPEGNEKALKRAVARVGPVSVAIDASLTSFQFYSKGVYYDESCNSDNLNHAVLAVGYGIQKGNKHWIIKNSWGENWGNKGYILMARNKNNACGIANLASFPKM
In words: Inhibition Assay. Conditions: pH 5.5. As to the method: (§1) Inhibitors were assayed against human liver Cathepsin L and B. Inhibitors were also evaluated for inhibition against purified recombinant Cathepsin K.

The target in the next test is Cathepsin L (Homo sapiens, UniProt Q6LAF7). In words: Inhibition Assay. The conditions noted are these: pH 5.5. As to the method:
as §1

Sequence of Cathepsin L (Q6LAF7 whole entry): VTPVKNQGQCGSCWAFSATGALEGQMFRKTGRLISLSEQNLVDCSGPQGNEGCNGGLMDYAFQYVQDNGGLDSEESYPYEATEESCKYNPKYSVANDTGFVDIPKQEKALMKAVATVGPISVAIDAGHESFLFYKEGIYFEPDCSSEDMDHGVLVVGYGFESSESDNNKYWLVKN

As a reminder, the Ki is the dissociation constant of the complex between target and ligand, obtained from inhibition or displacement. Consider `CC(NC(=O)[C@@H](NC(=O)c1ccc(C(F)(F)F)cc1)C(C)C)C(=O)CNC(=O)Cc1cccc(-c2ccccn2)c1` (stereo partly specified) [Cathepsin Inhibitor, Column 2 Row 3], for which the values for the Ki on Cathepsin K and on Cathepsin L were 430 nM and above 1000 nM, respectively.
As to `COc1ccc(C(=O)N[C@@H](CC(C)C)C(=O)NC(C)C(=O)CNC(=O)Cc2cccc(-c3ccccn3)c2)cc1OC` (stereo partly specified) [Cathepsin Inhibitor, Column 3 Row 1], the results for the Ki on Cathepsin K and at Cathepsin L were 7.4 nM and 150 nM, respectively.
As for `CC(NC(=O)[C@H](Cc1ccccc1)NC(=O)c1ccc2ccccc2n1)C(=O)CNC(=O)Cc1cccc(-c2ccccn2)c1` (stereo partly specified) [Cathepsin Inhibitor, Column 5 Row 2], the Ki on Cathepsin K came out at 170 nM; at Cathepsin L it was 110 nM.
In the case of `CC(=O)N[C@H](C(=O)NC(C)C(=O)CNC(=O)Cc1cccc(-c2ccccn2)c1)C(C)C` (stereo partly specified) [Cathepsin Inhibitor, Column 1 Row 3], the Ki on Cathepsin K and at Cathepsin L was above 1000 nM throughout.
As for `CC(NC(=O)[C@@H](NC(=O)c1ccc2ccccc2n1)C(C)C)C(=O)CNC(=O)Cc1cccc(-c2ccccn2)c1` (stereo partly specified) [Cathepsin Inhibitor, Column 5 Row 3], the Ki at Cathepsin K is 830 nM; on Cathepsin L, above 1000 nM.
Take `CC(C)C[C@H](NC(=O)c1cc2ccccc2s1)C(=O)NC(C)C(=O)CNC(=O)Cc1cccc(-c2ccccn2)c1` (stereo partly specified) [Cathepsin Inhibitor, Column 6 Row 1]: the Ki was determined as 1.3 nM at Cathepsin K and 90 nM on Cathepsin L.
In the case of `CC(NC(=O)[C@H](Cc1ccccc1)NC(=O)c1cc2ccccc2s1)C(=O)CNC(=O)Cc1cccc(-c2ccccn2)c1` (stereo partly specified) [Cathepsin Inhibitor, Column 6 Row 2], the Ki on Cathepsin K worked out at 16 nM; on Cathepsin L it was 18 nM.
The like results for `CC(NC(=O)[C@@H](NC(=O)c1ccc2ncccc2c1)C(C)C)C(=O)CNC(=O)Cc1cccc(-c2ccccn2)c1` (stereo partly specified) [Cathepsin Inhibitor, Column 4 Row 3] were, in that order, above 1000 nM and above 1000 nM.
As to `CC(NC(=O)[C@@H](NC(=O)c1cc2ccccc2s1)C(C)C)C(=O)CNC(=O)Cc1cccc(-c2ccccn2)c1` (stereo partly specified) [Cathepsin Inhibitor, Column 6 Row 3], the Ki is 300 nM at Cathepsin K and above 1000 nM on Cathepsin L.
Turning to `CC(C)C[C@H](NC(=O)c1ccc2ccccc2n1)C(=O)NC(C)C(=O)CNC(=O)Cc1cccc(-c2ccccn2)c1` (stereo partly specified) [Cathepsin Inhibitor, Column 5 Row 1], the values for the Ki on Cathepsin K and on Cathepsin L were 1.7 nM and 130 nM, respectively.
Consider `CC(=O)N[C@@H](Cc1ccccc1)C(=O)NC(C)C(=O)CNC(=O)Cc1cccc(-c2ccccn2)c1` (stereo partly specified) [Cathepsin Inhibitor, Column 1 Row 2], for which the inhibition constant (Ki) at Cathepsin K and on Cathepsin L was above 1000 nM throughout.
Take `CC(NC(=O)[C@H](Cc1ccccc1)NC(=O)c1ccc(C(F)(F)F)cc1)C(=O)CNC(=O)Cc1cccc(-c2ccccn2)c1` (stereo partly specified) [Cathepsin Inhibitor, Column 2 Row 2]: the Ki on Cathepsin K amounted to 90 nM; at Cathepsin L it was 120 nM.
For the molecule `CC(C)C[C@H](NC(=O)c1ccc2ncccc2c1)C(=O)NC(C)C(=O)CNC(=O)Cc1cccc(-c2ccccn2)c1` (stereo partly specified) [Cathepsin Inhibitor, Column 4 Row 1], the Ki stood at 18 nM at Cathepsin K and 130 nM at Cathepsin L.
Take `CC(=O)N[C@@H](CC(C)C)C(=O)NC(C)C(=O)CNC(=O)Cc1cccc(-c2ccccn2)c1` (stereo partly specified) [Cathepsin Inhibitor, Column 1 Row 1]: the Ki is 200 nM on Cathepsin K and above 1000 nM on Cathepsin L.
For the molecule `COc1ccc(C(=O)N[C@H](C(=O)NC(C)C(=O)CNC(=O)Cc2cccc(-c3ccccn3)c2)C(C)C)cc1OC` (stereo partly specified) [Cathepsin Inhibitor, Column 3 Row 3], the Ki at Cathepsin K and at Cathepsin L was above 1000 nM in each case.
With `COc1ccc(C(=O)N[C@@H](Cc2ccccc2)C(=O)NC(C)C(=O)CNC(=O)Cc2cccc(-c3ccccn3)c2)cc1OC` (stereo partly specified) [Cathepsin Inhibitor, Column 3 Row 2], the Ki at Cathepsin K stood at 25 nM; at Cathepsin L it was 53 nM.
Take `CC(C)C[C@H](NC(=O)c1ccc(C(F)(F)F)cc1)C(=O)NC(C)C(=O)CNC(=O)Cc1cccc(-c2ccccn2)c1` (stereo partly specified) [Cathepsin Inhibitor, Column 2 Row 1]: the Ki came to 8.4 nM on Cathepsin K and 230 nM on Cathepsin L.
Consider `CC(NC(=O)[C@H](Cc1ccccc1)NC(=O)c1ccc2ncccc2c1)C(=O)CNC(=O)Cc1cccc(-c2ccccn2)c1` (stereo partly specified) [Cathepsin Inhibitor, Column 4 Row 2], for which the Ki at Cathepsin K stood at 170 nM; on Cathepsin L, 36 nM.
